# Measurements reported in PubChem BioAssay (NCI).
#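 A five-concentration, 48-hour dose response in 96-well plates underlies each endpoint, interpolated linearly between surrounding concentrations. Here, GI50 denotes the concentration required for 50% inhibition of growth. Definition used: TGI = concentration required for complete inhibition of growth.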
# Tests used:
# Assay in all cases: NCI tumour cell line growth inhibition, 48 h
# [1] = tested on: OVCAR-4 ovarian
# [2] = tested on: SF-295 CNS
# [3] = tested on: HT29 colon
# [4] = tested on: SN12C renal
# [5] = tested on: 786-0 renal
# [6] = tested on: EKVX NSCLC
# [7] = tested on: SF-268 CNS
# [8] = tested on: PC-3 prostate
# [9] = tested on: NCI/ADR-RES ovarian
# [10] = tested on: NCI-H23 lung
SMILES,TGI [1] [µM],TGI [2] [µM],TGI [3] [µM],TGI [4] [µM],TGI [5] [µM],TGI [6] [µM],TGI [7] [µM],TGI [8] [µM],TGI [9] [µM],TGI [10] [µM],GI50 [7] [µM],GI50 [1] [µM],GI50 [2] [µM],GI50 [8] [µM],GI50 [9] [µM],GI50 [4] [µM],GI50 [6] [µM]
CN(C)C(=S)Nc1nnc(NC23CC4CC(CC(C4)C2)C3)s1,32.4,30.7,19.2,38.1,38.2,59.7,48.5,–,–,–,–,–,–,–,–,–,–
Cc1nn2c(N)cc(=O)nc2nc1/C=C/c1ccc(N(C)C)cc1,> 100,> 100,> 100,> 100,> 100,> 100,> 100,> 100,> 100,> 100,–,–,–,–,–,–,–
CCOC(=O)c1ccc(N=C2SC(=S)N(c3ccc(F)cc3)C2=Nc2ccc(C(=O)OCC)cc2)cc1,33.4,> 100,51.6,33.6,31.6,63.9,> 37.6,40.6,44.8,44.2,–,–,–,–,–,–,–
NC(CCCCCP(=O)(O)O)C(=O)O (centres undefined),> 100,> 100,> 100,> 100,–,> 100,> 100,> 100,> 100,> 100,–,–,–,–,–,–,–
C=CCCCCOC1C=CC(OC(C)=O)C(COC(C)=O)O1 (centres undefined),> 100,> 100,> 100,> 100,> 100,> 100,> 100,> 100,> 100,> 100,–,–,–,–,–,–,–
CCN(CC)CCN1c2ccccc2Sc2ccc3ccccc3c21,17,26.4,12.3,24.4,23.9,20.1,35.1,19.5,25.6,31.9,–,–,–,–,–,–,–
COC1/C=C/C(C)C(OC)CC(O)/C=C/C(C)C(C(C)C(OC)C(C)CCC(=O)C(C)C(C/C=C/N(C)C=O)OC)OC(=O)/C=C/C=C(\C)CC(OC)C(OC)C2=CC(=O)O[C@@H](C(C)C(OC)C1)[C@H]2O (some centres undefined),1.41,0.0797,> 25,> 25,0.113,0.28,0.129,0.0862,0.145,0.151,–,–,–,–,–,–,–
CN(Cc1cnc2nc(N)nc(N)c2n1)c1ccc(C(=O)NC(CCS(=O)(=O)O)C(=O)O)cc1 (centres undefined),> 100,> 100,> 100,> 100,–,> 100,> 100,> 100,> 100,> 100,0.972,–,–,–,–,–,–
O=C(N=Nc1ccc([N+](=O)[O-])cc1)NNc1ccc([N+](=O)[O-])cc1,44.8,–,61.8,40.5,27,–,80.1,52,–,44.7,–,–,–,–,–,–,–
NCCCNCCSSCc1ccccc1CSSCCNCCCN,> 100,> 100,27.4,> 100,–,> 100,> 100,–,–,> 100,–,–,–,–,–,–,–
CCN(CC)CCNc1ccc([N+](=O)[O-])c2nc3ccccc3c(N)c12,1.48,1.75,2.28,> 10,2.04,2.51,3.79,1.74,1.94,2.03,–,–,–,–,–,–,–
NNC(N)=Nc1cccc2ccccc12,> 100,> 100,> 100,> 100,> 100,> 100,> 100,–,> 100,> 100,–,–,–,–,–,–,–
ON=C1CCCCC(=NO)CCCC1,> 100,> 100,> 100,> 100,> 100,–,> 100,> 100,> 100,> 100,–,–,–,–,–,–,–
N#CS/C(C(Cl)=C(Cl)Cl)=C(/Cl)[N+](=O)[O-],–,45.4,–,4.92,–,6.76,18.9,9.79,> 28.1,7.95,–,–,–,–,–,–,–
CCN(CC)CCN1C(=O)c2cccc3c(-c4ccc5c(c4)ncn5C4CCCCC4)ccc(c23)C1=O,4.56,2.69,–,2.78,–,3.18,–,4.66,4.26,–,–,1.07,1.18,1.64,1.45,1.27,1.32
CC(/C=C/c1ncccc1OCCCCCC(=O)O)=N\NC1=NCCN1,> 100,> 100,> 100,> 100,–,> 100,> 100,–,–,–,–,–,–,–,–,–,–
NS(=O)(=O)c1nnc(NC(=O)CCC(=O)O)s1,> 100,> 100,> 100,> 100,> 100,> 100,> 100,–,> 100,> 100,–,–,–,–,–,–,–
CC(=O)OCC1C(C(C)OC(C)=O)CCC2C1CCC1(C)C(OC(C)=O)CCC21 (centres undefined),39.6,41.4,32.8,34.8,49.5,32.9,52.5,–,44.9,76.1,–,–,–,–,–,–,–
CN(C)c1nc(N(C)C)nc(N(C)CN(C)c2ccccc2)n1,> 100,> 100,> 100,> 100,–,–,> 100,–,–,> 100,–,–,–,–,–,–,–
CC1=C(C)C(=O)OC(C(C)(O)C2(O)CCC3(O)C4CC(Cl)C5(O)C(O)C=CC(=O)C5(C)C4CCC32C)C1 (centres undefined),> 100,> 100,> 100,> 100,> 100,> 100,> 100,> 100,–,> 100,–,–,–,–,–,–,–
O=C(O)CC(NC(=O)C(F)(F)F)C(=O)NC1Cc2ccccc2OC1=O (centres undefined),–,> 100,> 100,> 100,> 100,> 100,> 100,> 100,> 100,> 100,–,–,–,–,–,–,–
COCCO,> 100,> 100,> 100,> 100,–,> 100,> 100,–,> 100,> 100,–,–,–,–,–,–,–
C=CCn1c2ccccc2c2c(C)c3cnccc3c(C)c21,64.2,52.5,124,> 66.2,–,66.1,88.7,–,34.4,45.3,–,–,–,–,–,–,–
C=C1c2nc3ccccc3n2C=C(c2ccc(Cl)cc2)N1c1ccc(OCCN2CCOCC2)cc1,> 100,–,> 100,> 100,> 100,–,> 100,> 100,> 100,> 100,–,–,–,–,–,–,–
